Columns and labels:
sigma-1R = conditions: cited from earlier work
[1] = system: sigma-1 receptor / BiP complex; experiment: Dissociation of BiP from sigma-1 receptor in CHO cells; assay type: cell-based; conditions: 10 μM NE100 with 10 μM igmesine
Protocol: CHO cells were grown in a 6-well plates and treated with the compounds in culture medium at 37° C. for 30 min at 1 μM and 10 μM final concentration. The reaction was stopped by medium removal and adding 3 mL PBS at 37° C. CHO cells were harvested and suspended in 50 mM HEPES (pH7.4) followed by cross-linking with 50 μg/ml of dithio (bis) succinimidyl propionate (Thermo Fisher Scientific, Waltham, Mass.) for 30 min at 4° C. The reaction was stopped by adding Tris-HCl (pH 8.8, final 50 mM). Fifteen minutes after incubation on ice, cells were lysed with RIPA buffer [50 mM Tris (pH7.4), 150 mM NaCl, 1% Triton X-100, 0.3% sodium deoxycholate, 0.1% SDS, protease inhibitor cocktail (Roche Complete)]. After centrifugation at 12,000 g, 1 min, the supernatant was incubated overnight at 4° C. with Sig-1R antibody (Abcam). The cell lysate was incubated with Sepharose protein-A (Invitrogen) for 90 min. After centrifugation at 12,000 g, 1 min, the supernatant was discarded and the pellet was washed in 0.5 mL RIPA buffer. After a second centrifugation at 12,000 g, 20 min, the supernatant was discarded and the pellet was washed in 0.5 mL 2× Sample buffer/bMCE buffer. Following a third centrifugation at 12,000 g, 1 min, the supernatant was analysed by ELISA assay, according to the manufacturer's protocol (USCNK #SEC343Mu).

[2] = system: Aβ25-35 mouse model of Alzheimer's disease; experiment: Spontaneous alternation in the Y-maze, Aβ25-35 mouse model; assay type: in vivo; conditions: for protection from injury produced by Aβ25-35 treatment, single agent: Experiment 4, i.p. day 1 to day 6, dose dependent; for highest sub-active dose, spontaneous alternation: Experiment 3, i.p.
Protocol: (§1) The compound efficacy was evaluated 7 days after the peptide administration on the attenuation of the Aβ25-35-induced learning deficits (spatial working memory using the spontaneous alternation in the Y-maze test, and contextual long-term memory using the passive avoidance test).
(§2) The mice were tested 7 days post injection or at the indicated time points.
(§3) In Experiment 2, twelve mice per experimental group were administered Sc.Aβ or Aβ25-35-amyloid peptide on day 0 by i.c.v. injection. […] Animals were tested at day 7 and later.
(§4) The synergy/additivity/antagonism was evaluated by calculating the combination index. […] Animals were then tested at day 7 and later.
(§5) Animals were tested at day 7 and later.
(§6) For each of Experiments 1-4, on day 7, all animals were tested for the spontaneous alternation performance in the Y-maze test, an index of spatial working memory. On day 8 and 9, the contextual long-term memory of the animals was assessed using the step-through type passive avoidance procedure. On day 9, immediately after the retention session, animals were sacrificed by decapitation and the hippocampus and cortex dissected out. Lipid peroxidation was analyzed in the hippocampus, whereas neuroinflammation, apoptosis, amyloid burden and hyperphosphorylation of tau protein were analyzed in cortex.
The homogeneous oligomeric preparation of Aβ25-35 peptide was performed according to the AMYLGEN's own procedure. Each mouse was anesthetized with isoflurane 2.5% and injected i.c.v. with Aβ25-35 peptide (9 nmol/mouse) or Sc.Aβ peptide (9 nmol/mouse), in a final volume of 3 μl/mouse, according to the previously described method (Maurice T, et al. (1996). Brain Res. 706(2): 181-193, Maurice T, et al. (1998) Neuroscience 83(2): 413-428, Meunier J, et al. (2006) British J. Pharmacol. 149(8): 998-1012, Villard V, et al. (2009) Neuropsychopharmacology 34(6): 1552-1566, Villard V, et al. (2011) J. Pharmacol. Sci. 115(3): 279-292).
Animals: Male Swiss mice, 6 weeks old and weighing 30-35 g, from JANVIER (Saint Berthevin, France), were kept for housing and experiments took place within the animal facility building of the University of Montpellier 2 (CECEMA, Office of Veterinary Services agreement #B-34-172-23). Animals were housed in groups with access to food and water ad libitum, except during behavioral experiments. They were kept in a temperature and humidity controlled animal facility on a 12 h/12 h light/dark cycle (lights off at 07:00 pm). Mice were numbered by marking their tail using permanent markers. All animal procedures were conducted in strict adherence to the European Union directive of Sep. 22, 2010 (2010/63/UE). Diagnostic summary reports of JANVIER were annexed to the study report.
Spontaneous alternation performance: Immediate working memory performance was assessed by recording spontaneous alternation behavior during a single session in a Y-maze as described previously (Itoh J, et al. (1993) Eur J Pharmacol 236(3): 341-345; Hiramatsu M and Inoue K (1999) Br J Pharmacol 127(3): 655-660). The Y-maze is made of grey polyvinylchloride. Each arm of the Y-maze was 40 cm long, 3 cm wide, and 13 cm high at the bottom, 10 cm wide at the top, and converging at an equal angle. Each mouse was placed at the end of one arm and allowed to move freely through the maze during an 8 min session. The series of arm entries, including possible returns into the same arm, was checked visually. An alternation was defined as entries into all three arms on consecutive occasions. The number of maximum alternations is therefore the total number of arm entries minus two and the percentage of alternation was calculated as (actual alternations/maximum alternations)×100. Parameters included the percentage of alternation (memory index) and total number of arm entries (exploration index).

[3] = system: Aβ25-35 mouse model of Alzheimer's disease; experiment: Aβ25-35 mouse model, overall neuroprotection (summary statements); assay type: in vivo; conditions: versus usual doses; ibuprofen, atorvastatin after allometric scaling mouse to human
Protocol: as §1, §2, §3, §4, §5, §6

Structure (SMILES)	protection from injury produced by Aβ25-35 treatment, single agent [2]	lowering of the partner drug's dose when associated with igmesine [3]	also measured
CCC(C/C=C/c1ccccc1)(c1ccccc1)N(C)CC1CC1 (stereo not shown) [JO-1783, reference compound]	–	–	potency relative to igmesine at the binding site (sigma-1R): ten times less potent
CCCN(CCC)CCc1ccc(OC)c(OCCc2ccccc2)c1 [NE100, reference compound]	–	–	antagonism of igmesine-induced BiP dissociation [1]: prevented
CC(C)c1c(C(=O)Nc2ccccc2)c(-c2ccccc2)c(-c2ccc(F)cc2)n1CC[C@@H](O)C[C@@H](O)CC(=O)O [atorvastatin, reference compound]	able to protect	10 fold	–
COc1cc2c(cc1OC)C(=O)C(CC1CCN(Cc3ccccc3)CC1)C2 (stereo not shown) [donepezil, reference compound]	–	4 fold	highest sub-active dose, spontaneous alternation [2]: 0.25 mg/kg
CC(C)Cc1ccc(C(C)C(=O)O)cc1 (stereo not shown) [ibuprofen, reference compound]	able to protect	3 fold	–
CC12CC3CC(C)(C1)CC(N)(C3)C2 [memantine]	–	–	highest sub-active dose, spontaneous alternation [2]: 0.5 mg/kg
C#CCN(C)[C@H](C)Cc1ccccc1 [selegiline]	able to protect	–	–

— US11129801B2 (SigmaThera SAS, priority 2016, dated 2021)
